Consider seven molecules from paper PMC11062922 (Nature Chemical Biology, 2023).

Like-named read-outs stand apart in the source and are kept apart here.

For test [1], the system named is Concanavalin A-induced cytokine production in Whole Blood. More on the design: method as in chemicalprobes.org. The settings on record: ref chemicalprobes.org, read-out: Potency value in cells (EC50); cited from earlier work.
A further test concerns LCK. Also on record: method as in chemicalprobes.org. The settings on record: @ 1 mM ATP, ref chemicalprobes.org; cited from earlier work.
A further test has as its target T1, CSNK2A1 (CK2) (Homo sapiens, UniProt P68400).
T1 construct: endogenous in cells
Kind of test: Kinobeads two-dose competition binding: CK2 (CSNK2A1).

The target of a further test is CSNK2A2 (Homo sapiens, UniProt P19784). Briefly: Kinobeads two-dose competition binding: CSNK2A2. More on the design: to maximize the representation of endogenous proteins; endogenous in cells. The settings on record: Kinobeads two-dose screen (binding); read-out: Kdapp CSNK2A2. The text has this:
Briefly, Kinobeads comprise seven broad-spectrum small molecule kinase inhibitors immobilized on Sepharose beads. […]. Compounds of interest are set to compete for target protein binding with Kinobeads in the lysate and the amount of a given protein bound to Kinobeads in the presence of a compound can be quantified relative to a dimethylsulfoxide (DMSO) vehicle control by label-free mass spectrometry. This assay measures the physical interaction of a compound with thousands of endogenous proteins in parallel and, when systematically increasing the concentration of competitor, enables the calculation of an apparent interaction constant ( Kdapp ) for each compound and protein.
Kinobeads pulldown experiments were performed as described previously[13],[14],[17] with minor modification. […] The protein concentration was adjusted to 5 mg ml^−1. Kinase inhibitors were spiked into 0.5 ml of cell lysate at final concentrations of 100 and 1,000 nM (or DMSO, 0.3, 1, 3, 10, 30, 100, 300 and 1,000 nM for full dose experiments). […] Lysates were incubated for 45 min at 4 °C. Subsequently, lysates were incubated with Kinobeads ε (17.5 µl of settled beads) for 30 min at 4 °C. To assess the degree of protein depletion from the lysates by Kinobeads, the flow through of the DMSO control was recovered for a pulldown of pulldown experiment where the lysate was incubated a second time with fresh Kinobeads. Beads were washed in three steps with buffer containing 0.4%, 0.2% and no IGEPAL. Bound proteins were reduced with 50 mM DTT in 8 M Urea, 40 mM Tris-HCl pH 7.4 for 30 min at room temperature. After alkylation with 55 mM chloroacetamide, the urea concentration was reduced to 1–2 M and proteins were digested with trypsin. Acidified peptides were desalted and concentrated using SepPak tC18 µEluation plates (Waters). Samples were frozen, dried by vacuum centrifugation and stored at −20 °C.
Each kinase inhibitor was processed together with all DMSO controls of the same plate. Additionally, each search was supplemented with five high quality DMSO controls for consistent peptide identification and protein grouping. The resultant file (proteinGroups.txt) was used for subsequent filtering, normalization, data visualization and target annotation that was automatically performed by a data processing pipeline built in house that used R (including the ‘drc’ and ‘heatmap’ packages). First, reverse hits, potential contaminants and not quantified proteins in the DMSO control samples were discarded. Protein raw and label-free quantification intensities were normalized to the median DMSO control intensity to obtain relative residual binding intensities for each protein group at every inhibitor concentration and standard deviations of the DMSO control intensity were calculated. IC50 values were estimated based on the following equation IC50=I×100−inhibition/inhibition where [I] is the inhibitor concentration that was used for IC50 calculation and ‘inhibition’ the relative residual binding intensity. […]. Estimated Kdapp values were then calculated by multiplying the estimated IC50 values with a protein-dependent correction factor that was limited to a maximum value of one. The correction factor accounts for the depletion of a target protein from the lysate by Kinobeads. The depletion can be measured by the ratio of the amount of protein captured in two consecutive pulldowns of the same DMSO control lysate. In this study, correction factors were determined in separate experiments using the same lysate mixture and the same bead batch. Correction factors were set to the median of all correction factors. Targets of kinase inhibitors were annotated using the previously published random forest classifier. A training data set was annotated manually. […]

The next test addresses T2, CDK1/cyclinB (Homo sapiens, UniProt P06493).
T2 construct: purchased ProQinase
Briefly: Recombinant kinase activity assay (ProQinase, FlashPlate radiometric): CDK1/cyclinB. The class given is biochemical. Conditions: Enzyme CDK1_CycB1; Highest Assay Concentration 1.00E-06 M. The protocol:
(§1) Kinase activity assays were performed by ProQinase. Dose-dependent activity inhibition of CDK1/cyclinB, CK2alpha1 and CK2alpha2 were measured using a FlashPlateTM-based radiometric assay at KM (ATP) of the respective kinase.

The target in a further test is T3, CK2alpha1 (CSNK2A1) (Homo sapiens, UniProt P68400).
T3 construct: purchased ProQinase
Briefly: Recombinant kinase activity assay (ProQinase, FlashPlate radiometric): CK2alpha1. The settings on record: Enzyme CK2alpha1; Highest Assay Concentration 1.00E-06 M; read-out: IC50. The class given is biochemical. Here is the method: as §1

The target of a further test is T4, CK2alpha2 (CSNK2A2) (Homo sapiens, UniProt P19784).
T4 construct: purchased ProQinase
Briefly: Recombinant kinase activity assay (ProQinase, FlashPlate radiometric): CK2alpha2. The class given is biochemical. The protocol: as §1

Test [2] concerns IL-10 secretion in primary bone marrow-derived dendritic cells (BMDCs). Briefly: IL-10 cytokine secretion assay (ELISA) in Zymosan-stimulated primary BMDCs. The settings on record: murine BMDCs, inhibitor 30 min before Zymosan stimulation. The test is classed as cell-based, mouse. The protocol: A subsequent full dose–response experiment confirmed potent and selective binding to SYK ( Kdapp = 58 nM, […] = 0.60; Extended Data Fig. 5a,b). […] One of the effects of Zymosan is that it activates Dectin-1 signaling, in turn activating SYK and leading to increased IL-10 cytokine production (Fig. 3c)[34]. Treatment of cells with the respective SYK inhibitors before Zymosan stimulation indeed led to decreased levels of IL-10 in a dose-dependent fashion (Fig. 3d). […] In line with the cytokine readout, we observed a dose depended reduction of pTyr525/526 indicating SYK inhibition in live cells (Fig. 3e and Extended Data Fig. 5c).
Primary BMDCs were obtained from 9-week-old C57BL/6 mice that were maintained under standard specific pathogen-free conditions. BMDCs were differentiated for 7 days in Roswell Park Memorial Institute medium (Gibco) and granulocyte-macrophage colony-stimulating factor. On day seven, BMDCs were seeded in 96-well plates at 10^5 cells per well in 100 µl of culture medium followed by incubation for 4 h at 37 °C. Subsequently, cells were incubated with SYK inhibitors for 30 min followed by stimulation with Zymosan (final concentration of 50 µg ml^−1; Invivogen) and dispersed in culture medium for 24 h. […] For cytokine secretion quantification, cell culture medium was collected and concentrations of IL-10 in the supernatant were determined using mouse enzyme-linked immunosorbent assay kits (IL-10: Invitrogen) according to the manufacturer’s protocol. Experiments were performed in biological triplicates.

For test [3], the target named is T5, endogenous kinases and other proteins enriched by Kinobeads from mixed cancer cell lysates (Homo sapiens, UniProt P19784).
T5 construct: endogenous in cells
Briefly: Kinobeads pulldown, full dose-response (eight doses).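 Note: competition with Kinobeads ε after inhibitor preincubation in lysate (5 mg/ml protein) for 45 min at 4 °C, DMSO control, doses 0.3–1,000 nM, label-free LC–MS/MS quantification.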 The class given is binding. Conditions: target CSNK2A2; in nM.

Test [4] has as its target T6, endogenous kinases and other proteins enriched by Kinobeads from mixed cancer cell lysates (Homo sapiens, UniProt P16083).
T6 construct: endogenous in cells
Described as above. The test is classed as binding. The settings on record: target NQO2; in nM.

Test [5] deals with T7, endogenous kinases and other proteins enriched by Kinobeads from mixed cancer cell lysates (Homo sapiens, UniProt O75822).
T7 construct: to maximize the representation of endogenous proteins; endogenous in cells
The description is as above. Conditions: target EIF3J; in nM. The class given is binding.

For test [6], the target named is T8, endogenous kinases and other proteins enriched by Kinobeads from mixed cancer cell lysates (Homo sapiens, UniProt P68400).
T8 construct: endogenous in cells
Described as above. Conditions: target CSNK2A1;CSNK2A3; in nM. The class given is binding.

In test [7] the target is T9, endogenous kinases and other proteins enriched by Kinobeads from mixed cancer cell lysates (Homo sapiens, UniProt Q9Y616).
T9 construct: endogenous in cells
The test is described as above. The class given is binding. Conditions: target IRAK3; in nM.

For test [8], the target named is T10, endogenous kinases and other proteins enriched by Kinobeads from mixed cancer cell lysates (Homo sapiens, UniProt P67870).
T10 construct: endogenous in cells
Described as above. The class given is binding. The settings on record: target CSNK2B; in nM.

The target of test [9] is T11, endogenous kinases and other proteins enriched by Kinobeads from mixed cancer cell lysates (Homo sapiens, UniProt Q86TW2).
T11 construct: endogenous in cells
Described as above. The test is classed as binding. The settings on record: target ADCK1; in nM.

Test [10] has as its target T12, endogenous kinases and other proteins enriched by Kinobeads from mixed lysates of K-562, COLO-205, MV-4-11, SK-N-BE(2) and OVCAR-8 (Homo sapiens, UniProt P35916).
T12 construct: endogenous in cells
Briefly: Kinobeads competition binding profiling, two doses (100 nM and 1 µM).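 Note: inhibitor preincubated 45 min at 4 °C in cell lysate, then bead pulldown. Bound protein quantified by label-free mass spectrometry relative to DMSO vehicle control.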 Conditions: target FLT4; read-out: apparent Kd.

Another test has as its system XBP1 splicing in cells. More on the design: method as in chemicalprobes.org. The settings on record: ref chemicalprobes.org; read-out: Potency value in cells (IC50); cited from earlier work.
Another test deals with T13, ERN1 (Homo sapiens, UniProt O75460).
T13 construct: endogenous in cells
Also on record: method as in chemicalprobes.org. Conditions: truncated human IRE1 alpha WT (AA 469-977); ref chemicalprobes.org; cited from earlier work.

The target in test [11] is T14, endogenous kinases and other proteins enriched by Kinobeads from mixed lysates of K-562, COLO-205, MV-4-11, SK-N-BE(2) and OVCAR-8 (Homo sapiens, UniProt Q8NI60).
T14 construct: to maximize the representation of endogenous proteins; endogenous in cells
Kind of test: Kinobeads competition binding profiling, two doses (100 nM and 1 µM).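 Note: inhibitor preincubated 45 min at 4 °C in cell lysate, then bead pulldown. Bound protein quantified by label-free mass spectrometry relative to DMSO vehicle control.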 Conditions: target ADCK3; read-out: apparent Kd.

In test [12] the test system is CSF1R, FLT3, KIT, PDGFRB, PDGFRA. More on the design: method as in chemicalprobes.org. The settings on record: 2nd of 4 values listed for 5 targets; ref chemicalprobes.org; read-out: Potency value in cells (IC50); cited from earlier work.
Test [13] shares this test system. More on the design: method as in chemicalprobes.org. The settings on record: ref chemicalprobes.org, cited from earlier work.

Take `COc1cc(-c2nn([C@H]3CC[C@H](N4CCN(C(C)=O)CC4)CC3)c3ncnc(N)c23)ccc1NC(=O)c1cc2ccccc2n1C` [Compound A-770041]: in test [1], the EC50 was 80 nM. Besides, the Potency value in the test on LCK was 147 nM @ 1 mM ATP.
On to `CONC1=NC(=O)/C(=C/c2ccc3ncccc3c2)S1` [RO4613269-000], for which the potency estimated from few doses is 58 nM on CSNK2A1 (CK2) (Kinobeads two-dose screen (binding), read-out: Kdapp CK2 (CSNK2A1)) and 57 nM at CSNK2A2. The CATDSCK2 on CSNK2A1 (CK2) (selectivity score from Kinobeads two-dose data) is given as 0.86. The IC50 is above 1000 nM at CDK1/cyclinB; 116 nM on CK2alpha1 (CSNK2A1); 65.3 nM at CK2alpha2 (CSNK2A2) (Enzyme CK2alpha2, Highest Assay Concentration 1.00E-06 M, read-out: IC50); 65 nM on CK2alpha2 (CSNK2A2) (recombinant kinase activity assay at KM (ATP), read-out: Activity IC50 CSNK2A2).
As for `c1cn2cc(-c3ccc4cn[nH]c4c3)nc(Nc3ccc(N4CCOCC4)cc3)c2n1` [entospletinib], the IL-10 levels entry in test [2] is given as “dose-dependent reduction”. For the same molecule, the EC50 in test [3] amounted to 1314.91; in [4], 295.4; in test [5] it was 1609.61; in [6] it was 1585.19; in test [7] it was 4708.37; in test [8], 940.697. In [9], this molecule had an EC50 of 16437.9.
On to `CCS(=O)(=O)c1ccc(OC)c(Nc2ncc(-c3cccc(-c4ccccc4F)c3)o2)c1` [GW678313X], for which the potency estimated from few doses in test [10] was 423 nM.
For `Cc1ccc2c(NS(=O)(=O)c3ccccc3Cl)cccc2c1Oc1ncccc1-c1ccnc(N[C@H]2CCCNC2)n1` [AMG-18], the IC50 with XBP1 splicing in cells was 99 nM. Moreover, the Potency value on ERN1 is 13 nM.
As to `CNC(=O)c1cncc(/C=C/c2ccccc2Cl)c1` [GW445017X], the potency estimated from few doses in test [11] is 747 nM.
With `CCN1C(C)(C)CC(Oc2ccc(C(=O)Nc3ccc(NC(=O)Nc4cc(C(C)(C)C)on4)cc3)nc2)CC1(C)C` [AC710], the IC50 in test [12] was 2 nM. The Potency value in [13] (1st of 4 values listed for 5 targets) is given as 0.5 nM; in test [13] (2nd of 4 values listed for 5 targets) it was 0.6 nM; in test [13] (3rd of 4 values listed for 5 targets), 1 nM; in test [13] (4th of 4 values listed for 5 targets), 1.3 nM.
